Experimental data as given in patent publication US11331369B2, “Endoparasitic depsipeptides” (Zoetis Services LLC, priority 2017, dated 2022).
Read-outs that look alike come from different tables or passages of the source.

Experiments:
[1] = test system: 4th stage larvae (L4) of Dirofilaria immitis; test: Dirofilaria immitis, L4 Stage (DiL4) In Vitro Assay; assay type: cell-based
[2] = Canine pharmacokinetic (PK) study, single IV or oral dose; settings: dog
[3] = test system: circulating microfilariae (Dirofilaria immitis); test: Heartworm Positive Dog Studies (effects on circulating microfilariae, clinical observations); settings: for Mean MF/mL, Day 0 Pre-dose / Mean MF/mL, Day 0 Post-dose, 2 hours / Mean MF/mL, Day 1 / Mean MF/mL, Day 7 / Mean MF/mL, Day 14 / Mean MF/mL, Day 21: blood, 3 dogs/treatment; for Mean MF/mL, Day 0 Pre-dose: baseline before oral dose; for Mean MF/mL, Day 0 Post-dose, 2 hours / Mean MF/mL, Day 1 / Mean MF/mL, Day 7 / Mean MF/mL, Day 14 / Mean MF/mL, Day 21: oral dose (emodepside and 1b-14 1 mg/kg, 1b-25 up to 3 mg/kg); for Mean MF/mL, Day 0 Post-dose, 2 hours / % Reduction of circulating microfilariae, Day 0 Post-dose, 2 hours: 2 hours post-dose; for % Reduction of circulating microfilariae, Day 0 Post-dose, 2 hours / % Reduction of circulating microfilariae, Day 1 / % Reduction of circulating microfilariae, Day 7 / % Reduction of circulating microfilariae, Day 14 / % Reduction of circulating microfilariae, Day 21: vs pre-dose (Day 0) counts, oral dose
[4] = test system: third stage larvae of Haemonchus contortus; test: Haemonchus contortus L3 (HcL3) Assay; assay type: cell-based; settings: 96 h, read-out: HcL3 Minimum Effective Dose (MED)
[5] = test system: microfilariae of Dirofilaria immitis; test: Dirofilaria immitis, Microfilaria (DiMF) In vitro Assay; assay type: cell-based; settings: 72 h, read-out: DiMF Minimum Effective Dose (MED), approximately 72 hours incubation, microfilariae assessed for survival or paralysis
[6] = test system: circulating microfilariae (Dirofilaria immitis); settings: dog, in vivo, po, 1 mg/kg

SMILES | Mean MF/mL, Day 0 Pre-dose ([3]; heartworm positive dogs) | Mean MF/mL, Day 0 Post-dose, 2 hours ([3]; heartworm positive dogs) | Mean MF/mL, Day 1 ([3]; heartworm positive dogs) | Mean MF/mL, Day 7 ([3]; heartworm positive dogs) | Mean MF/mL, Day 14 ([3]; heartworm positive dogs) | Mean MF/mL, Day 21 ([3]; heartworm positive dogs) | % Reduction of circulating microfilariae, Day 0 Post-dose, 2 hours [3] [%] | % Reduction of circulating microfilariae, Day 1 [3] [%] | % Reduction of circulating microfilariae, Day 7 [3] [%] | % Reduction of circulating microfilariae, Day 14 [3] [%] | % Reduction of circulating microfilariae, Day 21 [3] [%] | other results
CC(C)C[C@H]1C(=O)O[C@H](Cc2ccc(Cn3cc(Br)cn3)cc2)C(=O)N(C)[C@@H](CC(C)C)C(=O)O[C@H](C)C(=O)N(C)[C@@H](CC(C)C)C(=O)O[C@H](Cc2ccc(Cn3cc(Br)cn3)cc2)C(=O)N(C)[C@@H](CC(C)C)C(=O)O[C@H](C)C(=O)N1C [Example 1b-25, (3S,6R,9S,12R,15S,18R,21S,24R)-6,18-bis[[4-[(4-bromopyrazol-1-yl)methyl]phenyl]methyl]-3,9,15,21-tetraisobutyl-4,10,12,16,22,24-hexamethyl-1,7,13,19-tetraoxa-4,10,16,22-tetrazacyclotetracosane-2,5,8,11,14,17,20,23-octaone] | 32,000 MF/mL | 34,000 MF/mL | 26,000 MF/mL | 27,000 MF/mL | 40,000 MF/mL | 46,000 MF/mL | −6 | 19 | 16 | −25 | −44 | selectivity ratio (DiMF/DiL4) ([1]; ratio of DiMF MED to DiL4 MED): about 8.3; Vd ([2]; in vivo, iv, 0.2 mg/kg): 3 L/kg; clearance ([2]; in vivo, iv, 0.2 mg/kg): 2 mL/min/kg; half-life ([2]; in vivo, iv, 0.2 mg/kg): 110 h; Cmax ([2]; in vivo, po, 1 mg/kg): 152 ng/mL; F ([2]; oral 1 mg/kg): 12%; adverse effects / clinical observations ([3]; heartworm positive dogs, dosed up to 3 mg/kg (po)): no adverse effects observed; effects on circulating MF counts ([3]; heartworm positive dogs, dosed up to 3 mg/kg (po), out to day 21 post-dose): no significant effects on circulating MF counts; minimal effective concentration [4]: 10 to 100 µM
CC(C)C[C@H]1C(=O)O[C@H](Cc2ccc(N3CCOCC3)cc2)C(=O)N(C)[C@@H](CC(C)C)C(=O)O[C@H](C)C(=O)N(C)[C@@H](CC(C)C)C(=O)O[C@H](Cc2ccc(N3CCOCC3)cc2)C(=O)N(C)[C@@H](CC(C)C)C(=O)O[C@H](C)C(=O)N1C [emodepside, reference compound] | 61,000 MF/mL | 8,300 MF/mL | 4,500 MF/mL | 8,800 MF/mL | 13,000 MF/mL | 13,000 MF/mL | 86 | 93 | 86 | 79 | 79 | minimal effective concentration ([1]; Dirofilaria immitis, 72 h, read-out: DiL4 Minimum Effective Dose (MED), approximately 72 hours incubation, L4 larvae assessed for survival or paralysis): 0.03 µM; minimal effective concentration [5]: 0.03 µM; average MF counts at 2 hours post-dose ([3]; heartworm positive dogs, 1 mg/kg (po), 61,000 MF/mL of blood pre-dose): 8,300 MF/mL of blood; decrease of average MF counts at 2 hours post-dose ([3]; heartworm positive dogs, 1 mg/kg (po), versus pre-dose): ~86%; adverse effects / clinical observations [6]: all treated dogs exhibited adverse effects consistent with dead or dying circulating microfilariae
